Drawing on US20230365592A1 (Agios Pharmaceuticals, Inc., priority 2022, published 2023), this text covers AC50 for 29 molecules.

One assay addresses T1, human PAH with the R408W mutation (Homo sapiens, UniProt P00439, R408W).
T1 construct: expressed in transfected cells
T1 sequence (P00439 1-452 R408W): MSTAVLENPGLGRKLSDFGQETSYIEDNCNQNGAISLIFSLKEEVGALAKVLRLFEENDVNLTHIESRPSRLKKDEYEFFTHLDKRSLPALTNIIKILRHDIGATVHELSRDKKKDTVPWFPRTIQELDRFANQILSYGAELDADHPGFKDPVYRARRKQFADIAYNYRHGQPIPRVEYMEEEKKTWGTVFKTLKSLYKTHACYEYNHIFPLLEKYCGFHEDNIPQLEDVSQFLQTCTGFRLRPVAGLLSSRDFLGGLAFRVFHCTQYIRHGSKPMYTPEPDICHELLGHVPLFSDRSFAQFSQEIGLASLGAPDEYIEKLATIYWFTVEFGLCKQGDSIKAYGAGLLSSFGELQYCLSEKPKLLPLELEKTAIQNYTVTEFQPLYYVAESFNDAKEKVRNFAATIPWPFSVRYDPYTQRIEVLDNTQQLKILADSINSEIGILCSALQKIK
Kind of assay: Cell Based Phenylalanine Flux Assay.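 Also: after compound treatment, cells received sepiapterin plus isotope-labelled Phenylalanine for 4 hours, then labelled Tyrosine in the medium was quantified, 10-point 2-fold dilution series run in duplicate.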 Conditions: A375 cells expressing R408W PAH; 24 hrs with compound, then 20 µM sepiapterin and 800 µM 13C9,15N-Phenylalanine for 4 hours; 13C-Tyrosine by LC-MS; average where tested multiple times; read-out: AC50.
Turning to `O=C(c1cnco1)N1CCc2[nH]cnc2C1c1cc2cccc(Cl)n2n1` (centres unmarked), the AC50 (commonly the midpoint of the concentration-response curve, whichever way the signal moves) lay within 1000 to 5000 nM.
Turning to `CN(C)Cc1nnc(C(=O)N2CCc3[nH]cnc3C2c2cc3ccccn3n2)o1` (centres unmarked), the AC50 was > 5000 nM.
The same measure, in the same setting: the value for `Cn1cc(-c2nc(C(F)F)c(C(=O)N3CCc4[nH]cnc4C3c3cc4ccccn4n3)o2)cn1` (centres unmarked) was 1000 to 5000 nM.
In the case of `Cc1cccn2nc(C3c4nc[nH]c4CCN3C(=O)c3nnc(C(C)(C)O)o3)cc12` (centres unmarked), the AC50 lay within 1000 to 5000 nM.
Still for that read-out and setting: for `CC(C)(O)c1nnc(C(=O)N2CCc3[nH]cnc3C2c2cc3cc(C(F)(F)F)ccn3n2)o1` (centres unmarked) the value was > 5000 nM.
Take `CC(C)(F)c1nnc(N2CCc3[nH]cnc3C2c2cc3c(C(F)F)cccn3n2)o1` (centres unmarked): the AC50 is > 5000 nM.
Consider `CC(C)c1cccn2nc(C3c4nc[nH]c4CCN3c3nnc(C(C)(C)F)o3)cc12` (centres unmarked), for which the AC50 fell in the range of 1000 to 5000 nM.

The same assay, now with this note: A375 cells expressing human PAH R408W; 24 hrs compound incubation; 13C-Tyrosine by LC-MS; average where tested multiple times; read-out: AC50.
Regarding `O=C(c1oc(-c2ccccn2)nc1C1CC1)N1CCc2[nH]cnc2[C@H]1c1cc2c(C(F)F)cccn2n1` [Example 2122, (S)-(4-cyclopropyl-2-(pyridin-2-yl)oxazol-5-yl)(4-(4-(difluoromethyl)pyrazolo[1,5-a]pyridin-2-yl)-1,4,6,7-tetrahydro-5H-imidazo[4,5-c]pyridin-5-yl)methanone], the AC50 was < 500 nM.
In the case of `Cc1c[nH]nc1-c1nnc(C(=O)N2CCc3[nH]cnc3[C@@H]2c2cc3c(C)cccn3n2)o1` [Example 2293, (R)-(5-(4-methyl-1H-pyrazol-3-yl)-1,3,4-oxadiazol-2-yl)(4-(4-methylpyrazolo[1,5-a]pyridin-2-yl)-1,4,6,7-tetrahydro-5H-imidazo[4,5-c]pyridin-5-yl)methanone], the AC50 is > 5000 nM.
Still for that read-out and setting: the value for `CC(C)c1cccn2nc([C@@H]3c4nc[nH]c4CCN3c3nnc(-c4cccnc4F)o3)cc12` [Example 2335, (S)-2-(2-fluoropyridin-3-yl)-5-(4-(4-isopropylpyrazolo[1,5-a]pyridin-2-yl)-1,4,6,7-tetrahydro-5H-imidazo[4,5-c]pyridin-5-yl)-1,3,4-oxadiazole] was 500 to 1000 nM.
For the molecule `COc1cccn2nc([C@@H]3c4nc[nH]c4CCN3C(=O)c3cnn4cc(C)ccc34)cc12` [Example 2470, (S)-(4-(4-methoxypyrazolo[1,5-a]pyridin-2-yl)-6,7-dihydro-1H-imidazo[4,5-c]pyridin-5(4H)-yl)(6-methylpyrazolo[1,5-a]pyridin-3-yl)methanone], the AC50 fell in the range of 1000 to 5000 nM.
As for `Cc1cccnc1-c1nnc(N2CCc3[nH]cnc3[C@H]2c2cc3ccccn3n2)o1` [Example 2267, (S)-2-(3-methylpyridin-2-yl)-5-(4-(pyrazolo[1,5-a]pyridin-2-yl)-1,4,6,7-tetrahydro-5H-imidazo[4,5-c]pyridin-5-yl)-1,3,4-oxadiazole], the half-maximal activity concentration (AC50) was < 500 nM.
The same measure, in the same setting: for `Cc1cccn2nc([C@@H]3c4nc[nH]c4CCN3C(=O)c3nnc(-c4ccn(C)n4)s3)cc12` [Example 1998, (S)-(5-(1-methyl-1H-pyrazol-3-yl)-1,3,4-thiadiazol-2-yl)(4-(4-methylpyrazolo[1,5-a]pyridin-2-yl)-1,4,6,7-tetrahydro-5H-imidazo[4,5-c]pyridin-5-yl)methanone] the value was < 500 nM.
In the case of `O=C(c1ccnn1-c1ccccn1)N1CCc2[nH]cnc2[C@H]1c1cc2c(F)cccn2n1` [Example 2388, (S)-(4-(4-fluoropyrazolo[1,5-a]pyridin-2-yl)-6,7-dihydro-1H-imidazo[4,5-c]pyridin-5(4H)-yl)(1-(pyridin-2-yl)-1H-pyrazol-5-yl)methanone], the AC50 was in the range of 1000 to 5000 nM.

The same assay, now with this note: A375 cells expressing human R408W PAH; 24 hrs compound incubation; 13C-Tyrosine by LC-MS; average where tested multiple times; read-out: AC50.
In the case of `Cc1cccn2nc([C@H]3c4nc[nH]c4CCN3C(=O)c3oc(-c4cn(C)cn4)nc3C(F)F)cc12` [Example 930, (R)-(4-(difluoromethyl)-2-(1-methyl-1H-imidazol-4-yl)oxazol-5-yl)(4-(4-methylpyrazolo[1,5-a]pyridin-2-yl)-6,7-dihydro-1H-imidazo[4,5-c]pyridin-5(4H)-yl)methanone], the concentration at half-maximal activity (AC50) is > 5000 nM.
Regarding `Cn1ccc(-c2nnc(C(=O)N3CCc4[nH]cnc4[C@H]3c3cc4c(C(F)(F)F)cccn4n3)o2)n1` (single isomer, unassigned) [Example 836], the AC50 is < 500 nM.
For `CC(C)(F)c1nc(C(F)F)c(C(=O)N2CCc3[nH]cnc3[C@H]2c2cc3cccc(Cl)n3n2)o1` [Example 1232, (S)-(4-(7-chloropyrazolo[1,5-a]pyridin-2-yl)-6,7-dihydro-1H-imidazo[4,5-c]pyridin-5(4H)-yl)(4-(difluoromethyl)-2-(2-fluoropropan-2-yl)oxazol-5-yl)methanone], the AC50 is < 500 nM.
Still for that read-out and setting: the value for `O=C(c1ocnc1C1CC1)N1CCc2[nH]cnc2[C@@H]1c1cc2ccccn2n1` [Example 619, (R)-(4-cyclopropyloxazol-5-yl)(4-(pyrazolo[1,5-a]pyridin-2-yl)-6,7-dihydro-1H-imidazo[4,5-c]pyridin-5(4H)-yl)methanone] was 1000 to 5000 nM; that for `Cc1ccc2c(C(=O)N3CCc4[nH]cnc4[C@@H]3c3cc4c(C(F)F)cccn4n3)cnn2c1` [Example 1713, (R)-(4-(4-(difluoromethyl)pyrazolo[1,5-a]pyridin-2-yl)-6,7-dihydro-1H-imidazo[4,5-c]pyridin-5(4H)-yl)(6-methylpyrazolo[1,5-a]pyridin-3-yl)methanone] was > 5000 nM.
`O=C(c1nnc(-c2ccn(C(F)F)n2)o1)N1CCc2[nH]cnc2[C@H]1c1cc2c(OC(F)F)cccn2n1` [Example 1662, (S)-(4-(4-(difluoromethoxy)pyrazolo[1,5-a]pyridin-2-yl)-6,7-dihydro-1H-imidazo[4,5-c]pyridin-5(4H)-yl)(5-(1-(difluoromethyl)-1H-pyrazol-3-yl)-1,3,4-oxadiazol-2-yl)methanone]: the AC50 fell in the range of 500 to 1000 nM.
The same measure, in the same setting: the value for `Cn1ccc(-c2ccc3c(C(=O)N4CCc5[nH]cnc5[C@H]4c4cc5c(F)cccn5n4)cnn3c2)n1` [Example 1646, (S)-(4-(4-fluoropyrazolo[1,5-a]pyridin-2-yl)-6,7-dihydro-1H-imidazo[4,5-c]pyridin-5(4H)-yl)(6-(1-methyl-1H-pyrazol-3-yl)pyrazolo[1,5-a]pyridin-3-yl)methanone] was 500 to 1000 nM; that for `CC(C)(C)c1nnc(C(=O)N2CCc3[nH]cnc3[C@@H]2c2cc3cccc(Cl)n3n2)o1` [Example 1122, (R)-(5-(tert-butyl)-1,3,4-oxadiazol-2-yl)(4-(7-chloropyrazolo[1,5-a]pyridin-2-yl)-6,7-dihydro-1H-imidazo[4,5-c]pyridin-5(4H)-yl)methanone] was 1000 to 5000 nM; that for `Cc1cccn2nc([C@H]3c4nc[nH]c4CCN3C(=O)c3nnc(-c4ncccn4)o3)cc12` [Example 1310, (R)-(4-(4-methylpyrazolo[1,5-a]pyridin-2-yl)-6,7-dihydro-1H-imidazo[4,5-c]pyridin-5(4H)-yl)(5-(pyrimidin-2-yl)-1,3,4-oxadiazol-2-yl)methanone] was 1000 to 5000 nM.
Same read-out and setting: the value for `Cc1ncoc1C(=O)N1CCc2[nH]cnc2[C@H]1c1cc2cccc(Cl)n2n1` [Example 1174, (S)-(4-(7-chloropyrazolo[1,5-a]pyridin-2-yl)-6,7-dihydro-1H-imidazo[4,5-c]pyridin-5(4H)-yl)(4-methyloxazol-5-yl)methanone] was 500 to 1000 nM; that for `Cc1nc(C(C)(C)O)oc1C(=O)N1CCc2[nH]cnc2[C@H]1c1cc2c(F)cccn2n1` [Example 1000, (S)-(4-(4-fluoropyrazolo[1,5-a]pyridin-2-yl)-6,7-dihydro-1H-imidazo[4,5-c]pyridin-5(4H)-yl)(2-(2-hydroxypropan-2-yl)-4-methyloxazol-5-yl)methanone] was 500 to 1000 nM; that for `CC(C)(F)c1nnc(C(=O)N2CCc3[nH]cnc3[C@@H]2c2cc3c(C(F)F)cccn3n2)o1` [Example 1351, (R)-(4-(4-(difluoromethyl)pyrazolo[1,5-a]pyridin-2-yl)-6,7-dihydro-1H-imidazo[4,5-c]pyridin-5(4H)-yl)(5-(2-fluoropropan-2-yl)-1,3,4-oxadiazol-2-yl)methanone] was > 5000 nM.
Regarding `CC(C)c1nnc(C(=O)N2CCc3[nH]cnc3[C@@H]2c2cc3cccc(C(F)F)n3n2)o1` [Example 1493, (R)-(4-(7-(difluoromethyl)pyrazolo[1,5-a]pyridin-2-yl)-6,7-dihydro-1H-imidazo[4,5-c]pyridin-5(4H)-yl)(5-isopropyl-1,3,4-oxadiazol-2-yl)methanone], the AC50 is 1000 to 5000 nM.
As for `Cc1cccn2nc([C@@H]3c4nc[nH]c4CCN3C(=O)c3nnc(-c4ccn(C(F)(F)F)n4)o3)cc12` [Example 1478, (S)-(4-(4-methylpyrazolo[1,5-a]pyridin-2-yl)-6,7-dihydro-1H-imidazo[4,5-c]pyridin-5(4H)-yl)(5-(1-(trifluoromethyl)-1H-pyrazol-3-yl)-1,3,4-oxadiazol-2-yl)methanone], the AC50 is < 500 nM.
As for `Cc1nnc(C(=O)N2CCc3[nH]cnc3[C@H]2c2cc3c(C(F)(F)F)cccn3n2)o1` [Example 944, (S)-(5-methyl-1,3,4-oxadiazol-2-yl)(4-(4-(trifluoromethyl)pyrazolo[1,5-a]pyridin-2-yl)-6,7-dihydro-1H-imidazo[4,5-c]pyridin-5(4H)-yl)methanone], the AC50 was 500 to 1000 nM.
